Measurements reported in paper PMC8703412 (Pharmaceuticals, 2021).
Values after ≈ are worked out from the molar mass of the structure shown. Like-named read-outs stand apart in the source and are kept apart here.

How the values were obtained:
[1] = system: Mycobacterium tuberculosis strain 331/88 (i.e., H37Rv); assay: MIC micromethod in Šula's medium, drug-susceptible Mtb.; format: cell-based
[2] = system: Mycobacterium avium 330/88; assay: MIC micromethod in Šula's medium, M. avium; format: cell-based
[3] = system: Mycobacterium kansasii 6509/96 (clinical isolate); assay: MIC micromethod in Šula's medium, M. kansasii; format: cell-based; details: Mycobacterium kansasii
[4] = Cytotoxicity, CellTiter 96 (MTS) assay; details: human, Cytotoxicity for HepG2 cells, IC50, 24 h incubation, 1–1000 µM
[5] = Mycobacterium tuberculosis, H37RV, 336 h, 14 d incubation, precursors, Table 2, read-out: MIC Mtb. 331/88 14 d
[6] = Mycobacterium tuberculosis, H37RV, 504 h, 21 d incubation, precursors, Table 2, read-out: MIC Mtb. 331/88 21 d
[7] = Mycobacterium avium, 330/88, 336 h, 14 d incubation, precursors, Table 2, read-out: MIC M. avium 330/88 14 d
[8] = Mycobacterium avium, 330/88, 504 h, 21 d incubation, precursors, Table 2, read-out: MIC M. avium 330/88 21 d
[9] = 168 h, read-out: MIC M. kansasii 6509/96 7 d
[10] = 336 h, 14 d incubation, precursors, Table 2, read-out: MIC M. kansasii 6509/96 14 d
[11] = 504 h, 21 d incubation, precursors, Table 2, read-out: MIC M. kansasii 6509/96 21 d
[12] = Mycobacterium tuberculosis, H37RV, 336 h, 14 d incubation, esters, Table 1, read-out: MIC Mtb. 331/88 14 d
[13] = Mycobacterium tuberculosis, H37RV, 504 h, 21 d incubation, esters, Table 1, read-out: MIC Mtb. 331/88 21 d
[14] = Mycobacterium avium, 330/88, 336 h, 14 d incubation, Table 1, read-out: MIC M. avium 330/88 14 d
[15] = Mycobacterium avium, 330/88, 504 h, 21 d incubation, Table 1, read-out: MIC M. avium 330/88 21 d
[16] = 168 h, 7 d incubation, Table 1, read-out: MIC M. kansasii 6509/96 7 d
[17] = 336 h, 14 d incubation, Table 1, read-out: MIC M. kansasii 6509/96 14 d
[18] = 504 h, 21 d incubation, Table 1, read-out: MIC M. kansasii 6509/96 21 d
[19] = 504 h, text summary over 7, 14 and 21 d, read-out: MIC for M. kansasii 6509/96
[20] = 504 h, read-out: MIC M. kansasii 6509/96 21 d

Row | SMILES | MIC [1, 5] [µM] | MIC [1, 6] [µM] | MIC [3, 9] [µM] | MIC [3, 10] [µM] | MIC [3, 11] [µM] | melting point [°C] | MIC [1, 12] [µM] | MIC [1, 13] [µM] | IC50 at 24 h [4] [µM] | MIC [2, 14] [µM] | MIC [2, 15] [µM] | MIC [3, 16] [µM] | MIC [3, 17] [µM] | MIC [3, 18] [µM] | further results
1 | Oc1ccc2ccccc2c1 [2-naphthol, reference compound] | 500 (≈ 72.1 µg/mL) | 500 (≈ 72.1 µg/mL) | 250 (≈ 36 µg/mL) | 500 (≈ 72.1 µg/mL) | 500 (≈ 72.1 µg/mL) |  |  |  |  |  |  |  |  |  | MIC [2, 7]: 1000 µM (≈ 144 µg/mL); MIC [2, 8]: 1000 µM (≈ 144 µg/mL)
2 | C/C(=N\NC(=O)c1ccncc1)C(=O)Oc1ccc(F)cc1 [3f, 4-Fluorophenyl (E)-2-(2-isonicotinoylhydrazineylidene)propanoate] |  |  |  |  |  | 174.1 to 177.2 | 0.25 (≈ 0.0753 µg/mL) | 0.5 (≈ 0.151 µg/mL) | > 1000 | 500 (≈ 151 µg/mL) | 500 (≈ 151 µg/mL) | 2 (≈ 0.603 µg/mL) | 4 (≈ 1.21 µg/mL) | 4 (≈ 1.21 µg/mL) | 
3 | C/C(=N\NC(=O)c1ccncc1)C(=O)Oc1ccc(Br)cc1 [3h, 4-Bromophenyl (E)-2-(2-isonicotinoylhydrazineylidene)propanoate] |  |  |  |  |  | 190 to 192 | ≤ 0.125 | 0.25 (≈ 0.0905 µg/mL) | > 1000 | 250 (≈ 90.5 µg/mL) | 500 (≈ 181 µg/mL) | 8 (≈ 2.9 µg/mL) | 8 (≈ 2.9 µg/mL) | 16 (≈ 5.79 µg/mL) | MIC [3, 19]: 8 to 16 µM (≈ 2.9 to 5.79 µg/mL)
4 | C/C(=N\NC(=O)c1ccncc1)C(=O)OCc1ccncc1 [3n, Pyridin-4-ylmethyl (E)-2-(2-isonicotinoylhydrazineylidene)propanoate] |  |  |  |  |  | 126 to 128 | 0.5 (≈ 0.149 µg/mL) | 1 (≈ 0.298 µg/mL) | > 1000 | ≥ 1000 | ≥ 1000 | 8 (≈ 2.39 µg/mL) | 16 (≈ 4.77 µg/mL) | 16 (≈ 4.77 µg/mL) | MIC ([1]; Mycobacterium tuberculosis, H37RV, 504 h, 14 and 21 d, read-out: MIC for Mtb.): 0.5 to 1 µM (≈ 0.149 to 0.298 µg/mL); MIC [3, 19]: 8 to 16 µM (≈ 2.39 to 4.77 µg/mL)
5 | COc1ccc(OC(=O)/C(C)=N/NC(=O)c2ccncc2)cc1 [3d, 4-Methoxyphenyl (E)-2-(2-isonicotinoylhydrazineylidene)propanoate] |  |  |  |  |  | 169 to 172 | 0.25 (≈ 0.0783 µg/mL) | 0.25 (≈ 0.0783 µg/mL) | > 1000 | 500 (≈ 157 µg/mL) | 1000 (≈ 313 µg/mL) | 4 (≈ 1.25 µg/mL) | 8 (≈ 2.51 µg/mL) | 8 (≈ 2.51 µg/mL) | 
6 | Oc1cccc2cccnc12 [Quinolin-8-ol, reference compound] | 8 (≈ 1.16 µg/mL) | 8 (≈ 1.16 µg/mL) | 16 (≈ 2.32 µg/mL) |  |  |  |  |  |  |  |  |  |  |  | MIC ([2]; Mycobacterium avium, 330/88, 336 h, read-out: MIC M. avium 330/88 14 d): 64 µM (≈ 9.29 µg/mL); MIC ([2]; Mycobacterium avium, 330/88, 504 h, read-out: MIC M. avium 330/88 21 d): 64 µM (≈ 9.29 µg/mL); MIC ([3]; 336 h, read-out: MIC M. kansasii 6509/96 14 d): 32 µM (≈ 4.65 µg/mL); MIC [3, 20]: 32 µM (≈ 4.65 µg/mL)
7 | C/C(=N\NC(=O)c1ccncc1)C(=O)Sc1ccccc1 [3s, S-Phenyl (E)-2-(2-isonicotinoylhydrazineylidene)propanethioate] |  |  |  |  |  | 186 to 187 | 0.25 (≈ 0.0748 µg/mL) | 0.25 (≈ 0.0748 µg/mL) | 182 | 250 (≈ 74.8 µg/mL) | 250 (≈ 74.8 µg/mL) | 1 (≈ 0.299 µg/mL) | 2 (≈ 0.599 µg/mL) | 4 (≈ 1.2 µg/mL) | 
8 | Cc1ccc(C(C)C)c(O)c1 [Thymol, reference compound] | 64 (≈ 9.61 µg/mL) | 125 (≈ 18.8 µg/mL) | 125 (≈ 18.8 µg/mL) | 250 (≈ 37.6 µg/mL) | 500 (≈ 75.1 µg/mL) |  |  |  |  |  |  |  |  |  | MIC [2, 7]: 250 µM (≈ 37.6 µg/mL); MIC [2, 8]: 500 µM (≈ 75.1 µg/mL)
9 | COC(=O)/C(C)=N/NC(=O)c1ccncc1 [3a, Methyl (E)-2-(2-isonicotinoylhydrazineylidene)propanoate] |  |  |  |  |  | 122 to 124.8 | 0.25 (≈ 0.0553 µg/mL) | 0.25 (≈ 0.0553 µg/mL) | > 1000 | 500 (≈ 111 µg/mL) | 1000 (≈ 221 µg/mL) | 2 (≈ 0.442 µg/mL) | 4 (≈ 0.885 µg/mL) | 8 (≈ 1.77 µg/mL) | 
10 | NNC(=O)c1ccncc1 [INH 1, Isoniazid, reference compound] |  |  |  | 8 (≈ 1.1 µg/mL) | 8 (≈ 1.1 µg/mL) |  | 1 (≈ 0.137 µg/mL) | 1 (≈ 0.137 µg/mL) | > 1000 | > 250 | > 250 | 8 (≈ 1.1 µg/mL) | 8 (≈ 1.1 µg/mL) |  | MIC ([1]; 14 d incubation, precursors, Table 2, read-out: MIC Mtb. 331/88 14 d): 1 µM (≈ 0.137 µg/mL); MIC ([1]; 21 d incubation, precursors, Table 2, read-out: MIC Mtb. 331/88 21 d): 1 µM (≈ 0.137 µg/mL); MIC ([2]; 14 d incubation, precursors, Table 2, read-out: MIC M. avium 330/88 14 d): >250 µM; MIC ([2]; 21 d incubation, precursors, Table 2, read-out: MIC M. avium 330/88 21 d): >250 µM; MIC ([3]; 168 h, 7 d incubation, precursors, Table 2, read-out: MIC M. kansasii 6509/96 7 d): 4 µM (≈ 0.549 µg/mL); MIC [3, 20]: 16 µM (≈ 2.19 µg/mL)
